# Assay results taken from PubChem BioAssay AID330 (DTP/NCI, 2004).
# “And” between values parts separate entries of the source, which are not always exact repeats. Identical values can stand only once. Toxic doses and inconclusive results are not listed.
# Test system: P388 leukemia ip, CD2F1 mice, survival T/C
# Assay: NCI In Vivo Anticancer Drug Screen. Data for tumor model P388 Leukemia (intraperitoneal) in CD2F1 (CDF1) mice
# Conditions: endpoint: median survival time, higher = longer survival
# How it was run: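 Mice carrying the transplanted tumor received test compound or vehicle. Survival was recorded in each group, and the value is the treated-group measurement divided by that of the vehicle-treated control group.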
# [1] = dose: 60.0 mg/kg/injection, schedule: Q01DX005 (ip), vehicle: saline with Tween-80
# [2] = dose: 120.0 mg/kg/injection, schedule: Q01DX005 (ip), vehicle: saline with Tween-80
# [3] = dose: 3.12 mg/kg/injection, schedule: Q01DX009 (ip), vehicle: water
# [4] = dose: 6.25 mg/kg/injection, schedule: Q01DX009 (ip), vehicle: water
# [5] = dose: 12.5 mg/kg/injection, schedule: Q01DX009 (ip), vehicle: water
# [6] = dose: 25.0 mg/kg/injection, schedule: Q01DX009 (ip), vehicle: water
# [7] = dose: 50.0 mg/kg/injection, schedule: Q01DX009 (ip), vehicle: water
# [8] = dose: 100.0 mg/kg/injection, schedule: Q01DX009 (ip), vehicle: water
# [9] = dose: 60.0 mg/kg/injection, schedule: Q01DX005 (ip), vehicle: Klucel (hydroxypropylcellulose) (HPC)
# [10] = dose: 120.0 mg/kg/injection, schedule: Q01DX005 (ip), vehicle: Klucel (hydroxypropylcellulose) (HPC)
# [11] = dose: 50.0 mg/kg/injection, schedule: Q01DX005 (ip), vehicle: Klucel (hydroxypropylcellulose) (HPC)
# [12] = dose: 50.0 mg/kg/injection, schedule: Q01DX009 (ip), vehicle: saline
smiles,measurement,setting,value
CC(C)CC1SCC(=O)N1c1nncs1 (stereo not drawn),T/C,[1],103 % of control
same,T/C,[2],97 % of control
same,T/C,"dose: 240.0 mg/kg/injection, schedule: Q01DX005 (ip), vehicle: saline with Tween-80",98 % of control
O=NNc1ncccn1,T/C,[3],96 % of control
same,T/C,[4],105 % of control
same,T/C,[5],93 % of control
same,T/C,[6],101 % of control
same,T/C,[7],102 % of control
same,T/C,[8],93 % of control
Cc1cccc(NC(=O)Nc2ccc(F)cc2)n1,T/C,[9],101 % of control
same,T/C,[10],96 % of control
same,T/C,"dose: 240.0 mg/kg/injection, schedule: Q01DX005 (ip), vehicle: Klucel (hydroxypropylcellulose) (HPC)",100 % of control
COc1cc(C(O)Cc2ccccc2)cc(OC)c1OC (stereo not drawn),T/C,"dose: 31.25 mg/kg/injection, schedule: Q01DX009 (ip), vehicle: saline + Tween-80 + alcohol",98 % of control
same,T/C,"dose: 62.5 mg/kg/injection, schedule: Q01DX009 (ip), vehicle: saline + Tween-80 + alcohol",109 % of control
same,T/C,"dose: 125.0 mg/kg/injection, schedule: Q01DX009 (ip), vehicle: saline + Tween-80 + alcohol",91 % of control
same,T/C,"dose: 250.0 mg/kg/injection, schedule: Q01DX009 (ip), vehicle: saline + Tween-80 + alcohol",89 % of control
CCNc1ncc2c(n1)N(CC)C(=O)/C(=C\C(=O)OC)N2,T/C,"dose: 37.5 mg/kg/injection, schedule: Q01DX009 (ip), vehicle: saline with Tween-80",94 % of control
same,T/C,"dose: 150.0 mg/kg/injection, schedule: Q01DX009 (ip), vehicle: saline with Tween-80",93 % of control
Cc1cc(NN=O)nc(C)c1C#N,T/C,[3],109 % of control
same,T/C,[4],123 % of control
same,T/C,[5],116 % of control
same,T/C,[6],150 % of control and 151 % of control
same,T/C,[7],178 % of control and 190 % of control
same,T/C,[8],178 % of control
C=CCC(C(=O)OC)c1cc(OC)c(OC)c(OC)c1 (stereo not drawn),T/C,"dose: 1.25 mg/kg/injection, schedule: Q01DX009 (ip), vehicle: saline",97 % of control
same,T/C,"dose: 2.5 mg/kg/injection, schedule: Q01DX009 (ip), vehicle: saline",100 % of control
same,T/C,"dose: 5.0 mg/kg/injection, schedule: Q01DX009 (ip), vehicle: saline",115 % of control
CCCCCCCCCCCCSC1=CC(=O)C(OC)=C(OC)C1=O,T/C,"dose: 0.78 mg/kg/injection, schedule: Q01DX009 (ip), vehicle: other",101 % of control
same,T/C,"dose: 1.56 mg/kg/injection, schedule: Q01DX009 (ip), vehicle: other",108 % of control
same,T/C,"dose: 3.13 mg/kg/injection, schedule: Q01DX009 (ip), vehicle: other",102 % of control
same,T/C,"dose: 6.25 mg/kg/injection, schedule: Q01DX009 (ip), vehicle: other",108 % of control
same,T/C,"dose: 6.25 mg/kg/injection, schedule: Q01DX030 (ip), vehicle: saline with Tween-80",101 % of control
same,T/C,"dose: 10.0 mg/kg/injection, schedule: Q01DX030 (ip), vehicle: saline with Tween-80",108 % of control
same,T/C,"dose: 12.5 mg/kg/injection, schedule: Q01DX009 (ip), vehicle: other",110 % of control
same,T/C,"dose: 12.5 mg/kg/injection, schedule: Q01DX030 (ip), vehicle: saline with Tween-80",104 % of control and 108 % of control and 121 % of control
same,T/C,"dose: 25.0 mg/kg/injection, schedule: Q01DX009 (ip), vehicle: other",118 % of control
same,T/C,"dose: 25.0 mg/kg/injection, schedule: Q01DX030 (ip), vehicle: saline with Tween-80",105 % of control
CCN(CC)C(C)(C)C(=O)/C=C/c1ccc(Cl)cc1,T/C,"dose: 60.0 mg/kg/injection, schedule: Q01DX005 (ip), vehicle: saline",115 % of control
same,T/C,"dose: 120.0 mg/kg/injection, schedule: Q01DX005 (ip), vehicle: saline",101 % of control
Cc1ccnc(NS(=O)(=O)c2ccc(NC(=O)Nc3ccc(Cl)c(C(F)(F)F)c3)cc2)n1,T/C,[11],99 % of control
same,T/C,"dose: 100.0 mg/kg/injection, schedule: Q01DX005 (ip), vehicle: Klucel (hydroxypropylcellulose) (HPC)",104 % of control
same,T/C,"dose: 200.0 mg/kg/injection, schedule: Q01DX005 (ip), vehicle: Klucel (hydroxypropylcellulose) (HPC)",96 % of control
CCCCCN(CCCCC)CC(O)CN1CCCc2ccccc21 (stereo not drawn),T/C,"dose: 50.0 mg/kg/injection, schedule: Q01DX005 (ip), vehicle: saline with Tween-80",102 % of control
same,T/C,"dose: 100.0 mg/kg/injection, schedule: Q01DX005 (ip), vehicle: saline with Tween-80",111 % of control
same,T/C,"dose: 200.0 mg/kg/injection, schedule: Q01DX005 (ip), vehicle: saline with Tween-80",112 % of control
COc1cc[c]([Pb]([O]C(C)=O)([O]C(C)=O)[O]C(C)=O)cc1,T/C,"dose: 100.0 mg/kg/injection, schedule: Q04DX003 (ip), vehicle: saline with Tween-80",103 % of control
same,T/C,"dose: 200.0 mg/kg/injection, schedule: Q04DX003 (ip), vehicle: saline with Tween-80",103 % of control
same,T/C,"dose: 400.0 mg/kg/injection, schedule: Q04DX003 (ip), vehicle: saline with Tween-80",111 % of control
O=[N+]([O-])c1nccn1C1OC(CO)C(O)C1O (stereo not drawn),T/C,"dose: 6.25 mg/kg/injection, schedule: Q01DX009 (ip), vehicle: saline",98 % of control
same,T/C,"dose: 12.5 mg/kg/injection, schedule: Q01DX009 (ip), vehicle: saline",99 % of control
same,T/C,"dose: 25.0 mg/kg/injection, schedule: Q01DX009 (ip), vehicle: saline",104 % of control
same,T/C,[12],104 % of control
Nc1cc(N)c(N=Nc2cccc3c(S(=O)(=O)O)cccc23)cc1N=Nc1cc([N+](=O)[O-])ccc1O,T/C,[12],109 % of control
same,T/C,"dose: 100.0 mg/kg/injection, schedule: Q01DX009 (ip), vehicle: saline",109 % of control
same,T/C,"dose: 200.0 mg/kg/injection, schedule: Q01DX009 (ip), vehicle: saline",96 % of control
O=[N+]([O-])c1ccc(/C=C/Oc2ccccc2)o1,T/C,"dose: 50.0 mg/kg/injection, schedule: Q01DX009 (ip), vehicle: suspension in saline",111 % of control
same,T/C,"dose: 100.0 mg/kg/injection, schedule: Q01DX009 (ip), vehicle: suspension in saline",110 % of control
same,T/C,"dose: 200.0 mg/kg/injection, schedule: Q01DX009 (ip), vehicle: suspension in saline",111 % of control
CCOC(=O)C(N=Nc1nn[nH]n1)c1ncn[nH]1 (stereo not drawn),T/C,"dose: 50.0 mg/kg/injection, schedule: Q01DX001 (ip), vehicle: Klucel (hydroxypropylcellulose) (HPC)",98 % of control
same,T/C,"dose: 100.0 mg/kg/injection, schedule: Q01DX001 (ip), vehicle: Klucel (hydroxypropylcellulose) (HPC)",98 % of control
same,T/C,"dose: 200.0 mg/kg/injection, schedule: Q01DX001 (ip), vehicle: Klucel (hydroxypropylcellulose) (HPC)",91 % of control
CC1=C(C(=O)Nc2cc(C)ccc2C)C(c2cccc([N+](=O)[O-])c2)C(C(=O)Nc2cc(C)ccc2C)=C(C)N1,T/C,[9],88 % of control
same,T/C,[10],89 % of control
N/N=C/c1cccn1-c1ccccc1Cl,T/C,[1],93 % of control
same,T/C,[2],92 % of control
CN(C)c1cc2c(nn1)Nc1ccccc1S2,T/C,"dose: 50.0 mg/kg/injection, schedule: Q01DX009 (ip), vehicle: saline with Tween-80",96 % of control
same,T/C,"dose: 100.0 mg/kg/injection, schedule: Q01DX009 (ip), vehicle: saline with Tween-80",96 % of control
same,T/C,"dose: 200.0 mg/kg/injection, schedule: Q01DX009 (ip), vehicle: saline with Tween-80",90 % of control
CCOC(=O)C1=C(C)N[C@H](c2ccccc2[N+](=O)[O-])N[C@H]1c1ccccc1[N+](=O)[O-],T/C,"dose: 12.5 mg/kg/injection, schedule: Q01DX005 (ip), vehicle: Klucel (hydroxypropylcellulose) (HPC)",105 % of control
same,T/C,"dose: 25.0 mg/kg/injection, schedule: Q01DX005 (ip), vehicle: Klucel (hydroxypropylcellulose) (HPC)",94 % of control
same,T/C,[11],88 % of control and 92 % of control
CCOC(=O)C(=O)Nc1c(C(C)=O)cc(C)c(C)c1C#N,T/C,"dose: 50.0 mg/kg/injection, schedule: Q01DX009 (ip), vehicle: saline + alcohol",92 % of control
same,T/C,"dose: 100.0 mg/kg/injection, schedule: Q01DX009 (ip), vehicle: saline + alcohol",97 % of control
same,T/C,"dose: 200.0 mg/kg/injection, schedule: Q01DX009 (ip), vehicle: saline + alcohol",96 % of control
[O-]/[N+](=N/O)C(c1ccccc1)c1ccccc1,T/C,"dose: 3.0 mg/kg/injection, schedule: Q01DX005 (ip), vehicle: Klucel + Tween-80",104 % of control
same,T/C,"dose: 6.0 mg/kg/injection, schedule: Q01DX005 (ip), vehicle: Klucel + Tween-80",98 % of control
same,T/C,"dose: 12.0 mg/kg/injection, schedule: Q01DX005 (ip), vehicle: Klucel + Tween-80",100 % of control
same,T/C,"dose: 24.0 mg/kg/injection, schedule: Q01DX005 (ip), vehicle: Klucel + Tween-80",97 % of control
